Assay results reported in ChEMBL document CHEMBL3045344, “Synthesis of d-amino acid peptides and their effect on beta-amyloid aggregation and toxicity in transgenic Caenorhabditis elegans” (Med Chem Res, 2013).
Calls of active or inactive are those of the source. The calls are words filed in the database; no cut-off is given here. Square brackets hold non-standard residues; d marks the D form. Peptide text beside a SMILES is read from it.

Legend:
[1] = biological target: Amyloid-beta precursor protein (Homo sapiens) (UniProt P05067); assay: Inhibition of amyloid beta (1-42) (unknown origin) aggregation at Abeta42/compound molar ratio of 1:5 after 3 days by turbidity based assay
Chain of Amyloid-beta precursor protein (Homo sapiens) (P05067 whole entry): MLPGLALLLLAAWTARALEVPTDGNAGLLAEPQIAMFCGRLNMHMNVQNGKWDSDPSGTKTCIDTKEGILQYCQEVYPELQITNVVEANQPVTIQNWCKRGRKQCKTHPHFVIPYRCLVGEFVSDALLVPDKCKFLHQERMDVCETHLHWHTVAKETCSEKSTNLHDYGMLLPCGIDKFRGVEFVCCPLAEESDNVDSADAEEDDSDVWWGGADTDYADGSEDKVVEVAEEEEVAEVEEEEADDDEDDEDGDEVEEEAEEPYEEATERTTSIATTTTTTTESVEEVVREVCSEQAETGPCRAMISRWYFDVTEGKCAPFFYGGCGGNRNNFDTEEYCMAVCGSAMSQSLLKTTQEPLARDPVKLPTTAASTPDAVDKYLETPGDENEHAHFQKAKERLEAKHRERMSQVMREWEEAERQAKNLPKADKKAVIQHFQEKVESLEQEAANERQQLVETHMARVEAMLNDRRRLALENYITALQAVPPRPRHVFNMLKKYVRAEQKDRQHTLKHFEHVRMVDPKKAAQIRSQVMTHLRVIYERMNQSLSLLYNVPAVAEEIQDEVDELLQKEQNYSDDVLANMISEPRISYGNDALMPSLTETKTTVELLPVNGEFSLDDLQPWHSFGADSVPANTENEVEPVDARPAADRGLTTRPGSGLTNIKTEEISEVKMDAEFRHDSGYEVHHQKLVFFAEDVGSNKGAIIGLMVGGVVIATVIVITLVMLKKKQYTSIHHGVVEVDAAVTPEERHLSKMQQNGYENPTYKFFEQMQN

[2] = biological target: Amyloid-beta precursor protein (Homo sapiens) (UniProt P05067); assay: Inhibition of amyloid beta (1-42) (unknown origin) aggregation at Abeta42/compound molar ratio of 1:1 after 3 days by turbidity based assay
Caenorhabditis elegans [3] = assay: Increase in survival of transgenic Caenorhabditis elegans CL2006 expressing human amyloid beta42 at 124 ug/ml; format: functional, organism-based
[4] = biological target: Amyloid-beta precursor protein (Homo sapiens) (UniProt P05067); assay: Inhibition of amyloid beta (1-42) (unknown origin) oligomer formation after 48 hr by silver staining
[5] = biological target: Amyloid-beta precursor protein (Homo sapiens) (UniProt P05067); assay: Stabilization of random coil conformation of amyloid beta (1-42) (unknown origin) after 3 days by CD spectroscopy
[6] = biological target: Amyloid-beta precursor protein (Homo sapiens) (UniProt P05067); assay: Binding affinity to amyloid beta (1-42) (unknown origin) assessed as increase in hydrophobic site exposure at Abeta42/compound molar ratio of 1:5 after 3 days by ANS fluorescence analysis
[7] = biological target: Amyloid-beta precursor protein (Homo sapiens) (UniProt P05067); assay: Binding affinity to amyloid beta (1-42) (unknown origin) assessed as increase in hydrophobic site exposure at Abeta42/compound molar ratio of 1:1 after 3 days by ANS fluorescence analysis
[8] = biological target: Amyloid-beta precursor protein (Homo sapiens) (UniProt P05067); assay: Induction of amyloid beta (1-42) (unknown origin) assembly assessed as mixed fibril and spherical aggregate formation after 3 days by ThT stain based fluorescence microscopy
[9] = biological target: Amyloid-beta precursor protein (Homo sapiens) (UniProt P05067); assay: Inhibition of amyloid beta (1-42) (unknown origin) fibril formation at Abeta42/compound molar ratio of 1:5 after 3 days by thioflavin T fluorescence method
[10] = biological target: Amyloid-beta precursor protein (Homo sapiens) (UniProt P05067); assay: Inhibition of amyloid beta (1-42) (unknown origin) fibril formation at Abeta42/compound molar ratio of 1:1 after 3 days by thioflavin T fluorescence method
[11] = biological target: Amyloid-beta precursor protein (Homo sapiens) (UniProt P05067); assay: Induction of amyloid beta (1-42) (unknown origin) aggregation at Abeta42/compound molar ratio of 1:5 after 3 days by turbidity based assay
[12] = biological target: Amyloid-beta precursor protein (Homo sapiens) (UniProt P05067); assay: Induction of amyloid beta (1-42) (unknown origin) aggregation at Abeta42/compound molar ratio of 1:1 after 3 days by turbidity based assay
[13] = biological target: Amyloid-beta precursor protein (Homo sapiens) (UniProt P05067); assay: Inhibition of amyloid beta (1-42) (unknown origin) assembly assessed as decrease in fibril formation after 3 days by ThT stain based fluorescence microscopy
Caenorhabditis elegans [14] = assay: Increase in survival of transgenic Caenorhabditis elegans CL2006 expressing human amyloid beta42 at 123 ug/ml; format: functional, organism-based
[15] = biological target: Amyloid-beta precursor protein (Homo sapiens) (UniProt P05067); assay: Induction of amyloid beta (1-42) (unknown origin) oligomer formation after 48 hr by silver staining

| inhibition [1] | inhibition [2] | inhibition [4] | Activity [5] | Activity [6] | Activity [7] | Activity [8] | inhibition [9] | inhibition [10] | Activity [11] | Activity [12] | inhibition [13] | Activity [15] | SMILES | Activity (Caenorhabditis elegans [3]) | Activity (Caenorhabditis elegans [14]) |
| --- | --- | --- | --- | --- | --- | --- | --- | --- | --- | --- | --- | --- | --- | --- | --- |
| Active | Active | Active | Active | Active | Active | Active | inactive | inactive |  |  |  |  | CC(C)C[C@@H](NC(=O)[C@@H](CCCCN)NC(=O)CNC(=O)[C@H]1CCCN1)C(=O)N[C@@H](C(=O)N[C@H](Cc1ccc(O)cc1)C(=O)N[C@H](C)C(=O)O)C(C)C | Active |  |
|  |  | Active | Active | Active | Active |  | Active | Active | Active | Active | Active |  | CC(C)C[C@@H](NC(=O)[C@@H](CCCCN)NC(=O)[C@H](N)CCCCN)C(=O)N[C@@H](C(=O)N[C@H](Cc1ccccc1)C(=O)N[C@H](Cc1ccccc1)C(=O)N[C@H](C)C(=O)O)C(C)C (H-[dK][dK][dL][dV][dF][dF][dA]-OH) | Active |  |
|  |  |  | Active | Active | Active |  | Active | Active | Active | Active | Active | Active | CC(C)C[C@@H](NC(=O)[C@@H](CCCCN)NC(=O)[C@H](N)CCCCN)C(=O)N[C@@H](C(=O)N[C@H](Cc1ccccc1)C(=O)N[C@H](Cc1ccccc1)C(=O)N[C@H](C)C(=O)N[C@H](CCCNC(=N)N)C(=O)N[C@H](CCCNC(=N)N)C(=O)N[C@H](CCCNC(=N)N)C(=O)N[C@H](CCCNC(=N)N)C(=O)N[C@H](C)C(=O)O)C(C)C |  | inactive |
